{
  "source": "patent US20230365514A1",
  "about": "“MACROCYCLIC COMPOUNDS” (NOVO NORDISK RESEARCH CENTRE OXFORD LIMITED, priority 2017, published 2023)",
  "format_in_all_cases": "binding",
  "key": {"[1]": {"test": "ITC titration with D-glucose", "description": "(§1) ITC experiments were carried out at 298 K. Saccharide solutions were prepared in HPLC-grade water with 10 mM phosphate buffer solution (pH 7.4) and allowed to equilibrate overnight if necessary. The sample cell was charged with a known concentration of receptor solution in HPLC-grade water with 10 mM phosphate buffer solution at pH 7.4 (typically 50 µM - 200 µM). Then, aliquots (typically 1.0 µL) of carbohydrate solution were added and the evolution of heat was followed as a function of time. Heats of dilution were measured by injecting the same carbohydrate solution into HPLC-grade water with 10 mM phosphate buffer solution at pH 7.4, using identical conditions. For every addition, the heat of dilution was subtracted from the heat of binding using a MicroCal software programme implemented in ORIGIN 7.0. This gave an XY matrix of heat vs. total guest concentration. This matrix was then imported into a specially written Excel programme to fit the data to a 1:1 binding model to give a Ka. ΔG can be derived from Ka and thus ΔS can be derived from ΔH and ΔG using common thermodynamic equations. […] This method consistently produced more accurate fits than fitting the data to an S-curve, as in the MicroCal software (S-curves are typically not observed for binding constants below ~104 - 105 M^-1)."}, "[2]": {"test": "ITC titration with methyl β-D-glucoside", "description": "as §1"}, "[3]": {"test": "ITC titration with myo-inositol", "conditions": "10 mM phosphate buffer pH 7.4, 298 K", "description": "ITC experiments were carried out at 298 K. Saccharide solutions were prepared in HPLC-grade water with 10 mM phosphate buffer solution (pH 7.4) and allowed to equilibrate overnight if necessary. The sample cell was charged with a known concentration of receptor solution in HPLC-grade water with 10 mM phosphate buffer solution at pH 7.4 (typically 50 µM - 200 µM). Then, aliquots (typically 1.0 µL) of carbohydrate solution were added and the evolution of heat was followed as a function of time. Heats of dilution were measured by injecting the same carbohydrate solution into HPLC-grade water with 10 mM phosphate buffer solution at pH 7.4, using identical conditions. For every addition, the heat of dilution was subtracted from the heat of binding using a MicroCal software programme implemented in ORIGIN 7.0. This gave an XY matrix of heat vs. total guest concentration. This matrix was then imported into a specially written Excel programme to fit the data to a 1:1 binding model to give a Ka. ΔG can be derived from Ka and thus ΔS can be derived from ΔH and ΔG using common thermodynamic equations."}, "[4]": {"test": "ITC titration with D-glucuronic acid", "conditions": "10 mM phosphate buffer pH 7.4, 298 K", "description": "(§2) Isothermal Titration (Micro)Calorimetry (ITC) experiments were performed on a MicroCal iTC200 microcalorimeter and/or a MicroCali VP-ITC. ITC experiments were carried out at 298 K. Saccharide solutions were prepared in HPLC-grade water and allowed to equilibrate overnight if necessary. The sample cell was charged with a known concentration of receptor solution in HPLC-grade water (typically 50 µM - 200 µM). Then, aliquots (typically 1.0 µL) of carbohydrate solution were added and the evolution of heat was followed as a function of time. Heats of dilution were measured by injecting the same carbohydrate solution into HPLC-grade water, using identical conditions. For every addition, the heat of dilution was subtracted from the heat of binding using a MicroCal software programme implemented in ORIGIN 7.0. This gave an XY matrix of heat vs. total guest concentration. This matrix was then imported into a specially written Excel programme to fit the data to a 1:1 binding model to give a Ka. ΔG can be derived from Ka, and ΔS can be derived from ΔH and ΔG using common thermodynamic equations. This method of analysis was used in conjunction with fits for Ka calculated using the MicroCal software to corroborate the results obtained.\n(§3) Isothermal Titration MicroCalorimetry (ITC) experiments were performed on a MicroCal iTC200 microcalorimeter and/or a MicroCali VP-ITC. ITC experiments were carried out at 298 K. Saccharide solutions were prepared in HPLC-grade water with 10 mM phosphate buffer solution (pH 7.4) and allowed to equilibrate overnight if necessary. The sample cell was charged with a known concentration of receptor solution in HPLC-grade water with 10 mM phosphate buffer solution at pH 7.4 (typically 50 µM - 200 µM). Then, aliquots (typically 1.0 µL) of carbohydrate solution were added and the evolution of heat was followed as a function of time. Heats of dilution were measured by injecting the same carbohydrate solution into HPLC-grade water with 10 mM phosphate buffer solution at pH 7.4, using identical conditions. […]"}, "[5]": {"test": "ITC titration with D-xylose", "conditions": "10 mM phosphate buffer pH 7.4, 298 K", "description": "as §2, §3"}, "[6]": {"test": "ITC titration with 2-deoxy-D-glucose", "conditions": "2-Deoxy-D-Glucose; 10 mM phosphate buffer pH 7.4, 298 K", "description": "as §1"}, "[7]": {"conditions": "D-Glucose (DMEM cell culture), 10k MWCO, 10 mM phosphate buffer pH 7.4"}, "[8]": {"conditions": "D-Glucose (DMEM salt control), 10 mM phosphate buffer pH 7.4 with added salts"}, "[9]": {"conditions": "D-Glucose (Leibovitz’s L-15 cell culture), 10k MWCO, 10 mM phosphate buffer pH 7.4"}, "[10]": {"conditions": "D-Glucose (human serum), 10k MWCO, 10 mM phosphate buffer"}, "[11]": {"conditions": "D-Glucose, 10 mM phosphate buffer pH 7.4, 298 K"}, "[12]": {"conditions": "Methyl β-D-Glucoside, 10 mM phosphate buffer pH 7.4, 298 K"}},
  "data": [
    {"smiles": "CCc1c2c(CC)c3c(CC)c1CNC(=O)Nc1ccc(C(=O)NC(CCC(=O)NC(CCC(=O)[O-])(CCC(=O)[O-])CCC(=O)[O-])(CCC(=O)NC(CCC(=O)[O-])(CCC(=O)[O-])CCC(=O)[O-])CCC(=O)NC(CCC(=O)[O-])(CCC(=O)[O-])CCC(=O)[O-])cc1NC(=O)NCc1c(CC)c(c(CC)c(c1CC)CNC(=O)Nc1cc(C(=O)NC(CCC(=O)NC(CCC(=O)[O-])(CCC(=O)[O-])CCC(=O)[O-])(CCC(=O)NC(CCC(=O)[O-])(CCC(=O)[O-])CCC(=O)[O-])CCC(=O)NC(CCC(=O)[O-])(CCC(=O)[O-])CCC(=O)[O-])ccc1NC(=O)NC3)CNC(=O)Nc1cc(C(=O)NC(CCC(=O)NC(CCC(=O)[O-])(CCC(=O)[O-])CCC(=O)[O-])(CCC(=O)NC(CCC(=O)[O-])(CCC(=O)[O-])CCC(=O)[O-])CCC(=O)NC(CCC(=O)[O-])(CCC(=O)[O-])CCC(=O)[O-])ccc1NC(=O)NC2.[Na+].[Na+].[Na+].[Na+].[Na+].[Na+].[Na+].[Na+].[Na+].[Na+].[Na+].[Na+].[Na+].[Na+].[Na+].[Na+].[Na+].[Na+].[Na+].[Na+].[Na+].[Na+].[Na+].[Na+].[Na+].[Na+].[Na+]", "note": "[Receptor 1, Triethylbenzene Receptor]", "values": [
      {"measurement": "TΔS (Determined by ITC)", "setting": "[1]; [7]", "value": 3.87, "unit": "kcal/mol"},
      {"measurement": "ΔG (Determined by ITC)", "setting": "[1]; [7]", "value": -5.11, "unit": "kcal/mol"},
      {"measurement": "ΔH (Determined by ITC)", "setting": "[1]; [7]", "value": -1.24, "unit": "kcal/mol"},
      {"measurement": "TΔS (Determined by ITC)", "setting": "[1]; [8]", "value": 3.87, "unit": "kcal/mol"},
      {"measurement": "ΔG (Determined by ITC)", "setting": "[1]; [8]", "value": -5.07, "unit": "kcal/mol"},
      {"measurement": "ΔH (Determined by ITC)", "setting": "[1]; [8]", "value": -1.2, "unit": "kcal/mol"},
      {"measurement": "TΔS (Determined by ITC)", "setting": "[1]; [9]", "value": 4.06, "unit": "kcal/mol"},
      {"measurement": "ΔG (Determined by ITC)", "setting": "[1]; [9]", "value": -5.07, "unit": "kcal/mol"},
      {"measurement": "ΔH (Determined by ITC)", "setting": "[1]; [9]", "value": -1, "unit": "kcal/mol"},
      {"measurement": "TΔS (Determined by ITC)", "setting": "[1]; [10]", "value": 3.66, "unit": "kcal/mol"},
      {"measurement": "ΔG (Determined by ITC)", "setting": "[1]; [10]", "value": -4.64, "unit": "kcal/mol"},
      {"measurement": "ΔH (Determined by ITC)", "setting": "[1]; [10]", "value": -0.98, "unit": "kcal/mol"},
      {"measurement": "Ka (Determined by ITC)", "setting": "[1]; D-Glucose pH 6 (PBS), 298 K", "value": "17,300 ± 3.8%"},
      {"measurement": "TΔS (Determined by ITC)", "setting": "[1]; D-Glucose pH 6 (PBS), 298 K", "value": 5.16, "unit": "kcal/mol"},
      {"measurement": "ΔG (Determined by ITC)", "setting": "[1]; D-Glucose pH 6 (PBS), 298 K", "value": -5.78, "unit": "kcal/mol"},
      {"measurement": "ΔH (Determined by ITC)", "setting": "[1]; D-Glucose pH 6 (PBS), 298 K", "value": -0.621, "unit": "kcal/mol"},
      {"measurement": "Ka (Determined by ITC)", "setting": "[1]; D-Glucose pH 7 (PBS), 298 K", "value": "17,800 ± 5.5%"},
      {"measurement": "TΔS (Determined by ITC)", "setting": "[1]; D-Glucose pH 7 (PBS), 298 K", "value": 5.26, "unit": "kcal/mol"},
      {"measurement": "ΔG (Determined by ITC)", "setting": "[1]; D-Glucose pH 7 (PBS), 298 K", "value": -5.81, "unit": "kcal/mol"},
      {"measurement": "ΔH (Determined by ITC)", "setting": "[1]; D-Glucose pH 7 (PBS), 298 K", "value": -0.526, "unit": "kcal/mol"},
      {"measurement": "Ka (Determined by ITC)", "setting": "[1]; D-Glucose pH 8 (PBS), 298 K", "value": "18,300 ± 1.8%"},
      {"measurement": "TΔS (Determined by ITC)", "setting": "[1]; D-Glucose pH 8 (PBS), 298 K", "value": 5.21, "unit": "kcal/mol"},
      {"measurement": "ΔG (Determined by ITC)", "setting": "[1]; D-Glucose pH 8 (PBS), 298 K", "value": -5.81, "unit": "kcal/mol"},
      {"measurement": "ΔH (Determined by ITC)", "setting": "[1]; D-Glucose pH 8 (PBS), 298 K", "value": -0.621, "unit": "kcal/mol"},
      {"measurement": "Ka (Determined by ITC)", "setting": "[1]; [11]", "value": "18,600 ± 14.3%"},
      {"measurement": "TΔS (Determined by ITC)", "setting": "[1]; [11]", "value": 3.97, "unit": "kcal/mol"},
      {"measurement": "ΔG (Determined by ITC)", "setting": "[1]; [11]", "value": -5.83, "unit": "kcal/mol"},
      {"measurement": "ΔH (Determined by ITC)", "setting": "[1]; [11]", "value": -1.86, "unit": "kcal/mol"},
      {"measurement": "Ka by ITC, fit calculated with the supplied ITC software", "setting": "[1]; D-glucose in 10 mM PBS buffer (pH 6)", "value": "19,800 ± 1290 M^-1"},
      {"measurement": "Ka by ITC, fit calculated with the supplied ITC software", "setting": "[1]; D-glucose in 10 mM PBS buffer (pH 7.4)", "value": "19,100 ± 1310 M^-1"},
      {"measurement": "Ka by ITC, fit calculated with the supplied ITC software", "setting": "[1]; D-glucose in 10 mM PBS buffer (pH 8)", "value": "23,400 ± 1850 M^-1"},
      {"measurement": "Ka by ITC, fit calculated with the supplied ITC software", "setting": "[1]; glucose in H2O", "value": "21,000 ± 2640 M^-1"},
      {"measurement": "TΔS (Determined by ITC)", "setting": "[2]; [12]", "value": 5.07, "unit": "kcal/mol"},
      {"measurement": "ΔG (Determined by ITC)", "setting": "[2]; [12]", "value": -5.31, "unit": "kcal/mol"},
      {"measurement": "ΔH (Determined by ITC)", "setting": "[2]; [12]", "value": -0.765, "unit": "kcal/mol"},
      {"measurement": "Ka by ITC, fit calculated with the supplied ITC software", "setting": "[2]; methyl-β-D-glucoside in H2O", "value": "9120 ± 542", "unit": "M⁻¹"},
      {"measurement": "TΔS (Determined by ITC)", "setting": "[3]", "value": -0.574, "unit": "kcal/mol"},
      {"measurement": "ΔG (Determined by ITC)", "setting": "[3]", "value": -5.28, "unit": "kcal/mol"},
      {"measurement": "TΔS (Determined by ITC)", "setting": "[4]", "value": -1.55, "unit": "kcal/mol"},
      {"measurement": "ΔG (Determined by ITC)", "setting": "[4]", "value": -5.09, "unit": "kcal/mol"},
      {"measurement": "ΔH (Determined by ITC)", "setting": "[4]", "value": -6.64, "unit": "kcal/mol"},
      {"measurement": "TΔS (Determined by ITC)", "setting": "[5]", "value": 3.23, "unit": "kcal/mol"},
      {"measurement": "ΔG (Determined by ITC)", "setting": "[5]", "value": -5.14, "unit": "kcal/mol"},
      {"measurement": "ΔH (Determined by ITC)", "setting": "[5]", "value": -1.91, "unit": "kcal/mol"},
      {"measurement": "TΔS (Determined by ITC)", "setting": "[6]", "value": 3.2, "unit": "kcal/mol"}
    ]}
  ]
}
